# Experimental data from paper PMC5207512, “Inhibition of Helicobacter pylori and Its Associated Urease by Palmatine: Investigation on the Potential Mechanism” (PLoS ONE, 2017).
# Where “and” joins values, the source holds several entries; their conditions need not be identical. Identical values can stand only once.
# Experiments:
# Type in all cases: biochemical
# H. pylori urease (HPU) [1] = molecular target: T1, H. pylori urease (HPU) (Helicobacter pylori, UniProt P69996); assay: biochemical
# T1 construct: HPU was prepared as previously described; made in house
# T1 sequence (P14916 whole entry): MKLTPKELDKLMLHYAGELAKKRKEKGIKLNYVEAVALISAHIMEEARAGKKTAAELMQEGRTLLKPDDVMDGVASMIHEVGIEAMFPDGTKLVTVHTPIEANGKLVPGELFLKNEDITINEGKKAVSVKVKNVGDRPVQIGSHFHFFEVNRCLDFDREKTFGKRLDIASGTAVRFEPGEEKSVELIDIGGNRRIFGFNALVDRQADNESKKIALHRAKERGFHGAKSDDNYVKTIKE
# T1 sequence (P69996 whole entry): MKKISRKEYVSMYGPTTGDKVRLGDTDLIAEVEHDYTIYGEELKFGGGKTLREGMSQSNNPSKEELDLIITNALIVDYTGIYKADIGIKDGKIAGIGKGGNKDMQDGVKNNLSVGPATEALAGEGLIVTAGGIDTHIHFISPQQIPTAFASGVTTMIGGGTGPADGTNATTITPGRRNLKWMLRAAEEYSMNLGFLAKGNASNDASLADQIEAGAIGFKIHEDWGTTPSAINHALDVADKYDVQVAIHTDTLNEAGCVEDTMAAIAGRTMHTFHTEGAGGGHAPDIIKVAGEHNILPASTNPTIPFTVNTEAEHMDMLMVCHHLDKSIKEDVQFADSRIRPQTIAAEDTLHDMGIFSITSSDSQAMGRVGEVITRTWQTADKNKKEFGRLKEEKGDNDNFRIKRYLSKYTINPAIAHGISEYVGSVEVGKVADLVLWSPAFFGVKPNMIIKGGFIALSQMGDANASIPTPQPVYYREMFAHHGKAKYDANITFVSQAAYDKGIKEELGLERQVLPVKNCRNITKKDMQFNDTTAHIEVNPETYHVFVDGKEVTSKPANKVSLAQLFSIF
# Experimental: (§1) For the protection with inorganic compounds (BA and NaF), 0.25 mg/mL urease (HPU or JBU) was preincubated with 5 mM BA or 5 mM NaF for 20 min. Following preincubation, each sample of the protected urease was incubated with 0.5 mM Pal for 20 min. The samples containing a proper volume of respective buffer instead of Pal served as comparison with the abovementioned systems. The experiments were triply performed.
# jack bean urease (JBU) = molecular target: T2, jack bean urease (JBU) (Canavalia ensiformis, UniProt P07374); assay: biochemical
# T2 construct: Urease from jack bean (Canavalia ensiformis, JBU); purchased Sigma-Aldrich (St Louis, MO, USA) type III (catalogue number not given)
# T2 sequence (P07374 whole entry, looked up): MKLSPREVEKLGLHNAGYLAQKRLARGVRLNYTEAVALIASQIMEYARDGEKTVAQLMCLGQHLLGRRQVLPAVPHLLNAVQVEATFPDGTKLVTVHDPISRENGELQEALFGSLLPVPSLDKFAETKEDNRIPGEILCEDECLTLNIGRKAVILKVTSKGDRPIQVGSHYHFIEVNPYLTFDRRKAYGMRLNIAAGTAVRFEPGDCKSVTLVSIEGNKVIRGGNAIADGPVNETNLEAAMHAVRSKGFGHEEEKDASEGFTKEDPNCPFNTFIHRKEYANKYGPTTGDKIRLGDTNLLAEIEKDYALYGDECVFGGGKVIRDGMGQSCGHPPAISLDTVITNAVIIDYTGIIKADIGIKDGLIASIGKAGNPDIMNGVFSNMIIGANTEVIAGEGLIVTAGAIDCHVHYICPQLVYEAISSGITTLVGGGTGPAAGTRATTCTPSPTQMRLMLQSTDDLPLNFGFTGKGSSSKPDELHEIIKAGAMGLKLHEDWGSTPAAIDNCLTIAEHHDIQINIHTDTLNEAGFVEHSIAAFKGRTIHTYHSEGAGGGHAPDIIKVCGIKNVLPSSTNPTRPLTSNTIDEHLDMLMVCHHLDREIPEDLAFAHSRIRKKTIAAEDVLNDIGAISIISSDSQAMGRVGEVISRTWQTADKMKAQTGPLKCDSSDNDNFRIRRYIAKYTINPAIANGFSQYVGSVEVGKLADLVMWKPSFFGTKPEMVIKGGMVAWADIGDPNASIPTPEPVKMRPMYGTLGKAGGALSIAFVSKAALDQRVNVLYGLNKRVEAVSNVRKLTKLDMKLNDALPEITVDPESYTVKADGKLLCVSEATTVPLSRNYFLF
# Experimental: as §1
# H. pylori urease (HPU) [2] = molecular target: T1, H. pylori urease (HPU); assay: Inhibition kinetic study (Lineweaver-Burk plots); conditions: for Lineweaver-Burk plot raw value (reciprocal velocity): Fig 3A HPU
# Experimental: Michaelis constant KM and the maximum velocity vmax values were evaluated by means of Lineweaver—Burk plots, using the initial velocities at different urea concentrations ([…]), in the absence or presence of 1.00, 0.50, and 0.25 mM Pal. The concentrations of HPU and JBU were both 0.25 mg/mL in the assays. The values were obtained by applying nonlinear regression to the Michaelis-Menten equation. All experiments were performed in triplicate.
# H. pylori urease (HPU) [3] = molecular target: T1, H. pylori urease (HPU); assay: Urease inhibition test (modified Berthelot method)
# Experimental: HPU was prepared as previously described. The standard urease assay mixture included 150 mM urea in 20 mM HEPES buffer (pH 7.5). After addition of small aliquots of enzyme-containing solution of urease, the assay ran for 20 min. The enzymatic activity was evaluated spectrophotometrically by detecting the ammonia concentration at 595 nm according to the modified Berthelot (phenol-hypochlorite) method. Urease activity was estimated with JBU as a standard, the specific activity of HPU was determined to be 17.0 U/mg. One unit of urease activity was defined as 1 μmol of ammonia released per min at 25°C. The amount of protein was determined by commercial Bradford Protein Assay Kit with BSA as a standard. The amount of ammonia released was decided from a standard curve. The activity of uninhibited urease was defined as the control activity of 100%.
# Reaction mixtures comprising 0.25 mg/mL HPU or JBU and different concentrations of Pal or AHA at the volume ratio of 1:1, were incubated at 37°C in 20 mM HEPES buffer (pH 7.5) in the absence of urea. The reactions were initiated by mixing the urease and the inhibitor. The preincubation mixture was withdrawn at 20 min and immediately transferred into the standard assay mixtures for urease residual activity determination. Inhibition rate (%) was calculated following the formula: I % = (1-activity with inhibitors/activity without inhibitors) × 100%. The IC50 was expressed as the concentration of inhibitor that decreased urease activity by 50% and calculated by plotting the percent of inhibition. The experiments were triply performed.
smiles,measurement,setting,value
"COc1cc2c(cc1OC)-c1cc3ccc(OC)c(OC)c3c[n+]1CC2 [Pal, Palmatine]",Residual urease activity (percent of control),"H. pylori urease (HPU) [1]; Fig 4C HPU, BA or NaF 5 mM preincubated 20 min, Pal 0.5 mM 20 min",23.7773% and 26.341%
same,activity of enzyme inactivated by Pal in the presence of BA,"H. pylori urease (HPU) [1]; HPU, 5 mM BA + 0.5 mM Pal, mean",22.42%
same,activity of enzyme inactivated by Pal in the presence of NaF,"H. pylori urease (HPU) [1]; HPU, 5 mM NaF + 0.5 mM Pal, mean",20.35%
same,remaining activity at 500 µM,"H. pylori urease (HPU) [1]; read-out: Residual urease activity (percent of control), Fig 4C HPU, BA or NaF 5 mM preincubated 20 min, Pal 0.5 mM 20 min",23.1%
same,Residual urease activity (percent of control),"jack bean urease (JBU); Fig 4D JBU, BA or NaF 5 mM preincubated 20 min, Pal 0.5 mM 20 min",36.6919% and 36.1251%
same,activity of enzyme inactivated by Pal in the presence of BA,"jack bean urease (JBU); JBU, 5 mM BA + 0.5 mM Pal, mean",33.08%
same,activity of enzyme inactivated by Pal in the presence of NaF,"jack bean urease (JBU); JBU, 5 mM NaF + 0.5 mM Pal, mean",19.91%
same,remaining activity at 500 µM,"jack bean urease (JBU); read-out: Residual urease activity (percent of control), Fig 4D JBU, BA or NaF 5 mM preincubated 20 min, Pal 0.5 mM 20 min",35.2%
same,Lineweaver-Burk plot raw value (reciprocal velocity),"H. pylori urease (HPU) [2]; Pal=0.25 mM, 1/urea 0.0333333",3.3428 and 3.026 and 3.128
same,Lineweaver-Burk plot raw value (reciprocal velocity),"H. pylori urease (HPU) [2]; Pal=0.25 mM, 1/urea 0.0666667",3.79 and 3.489 and 3.584
same,Lineweaver-Burk plot raw value (reciprocal velocity),"H. pylori urease (HPU) [2]; Pal=0.25 mM, 1/urea 0.133333",4.108 and 3.898 and 3.84
same,Lineweaver-Burk plot raw value (reciprocal velocity),"H. pylori urease (HPU) [2]; Pal=0.25 mM, 1/urea 0.266667",4.796 and 4.692 and 4.666
same,Lineweaver-Burk plot raw value (reciprocal velocity),"H. pylori urease (HPU) [2]; Pal=0.25 mM, 1/urea 0.533333",6.008 and 5.574 and 5.658
same,Lineweaver-Burk plot raw value (reciprocal velocity),"H. pylori urease (HPU) [2]; Pal=0.25 mM, 1/urea 1.06667",7.22 and 6.84 and 7.11
same,Lineweaver-Burk plot raw value (reciprocal velocity),"H. pylori urease (HPU) [2]; Pal=0.50 mM, 1/urea 0.0333333",6.847 and 6.4288 and 8.753
same,Lineweaver-Burk plot raw value (reciprocal velocity),"H. pylori urease (HPU) [2]; Pal=0.50 mM, 1/urea 0.0666667",7.294 and 6.935 and 7.391
same,Lineweaver-Burk plot raw value (reciprocal velocity),"H. pylori urease (HPU) [2]; Pal=0.50 mM, 1/urea 0.133333",8.5 and 7.307 and 9.1701
same,Lineweaver-Burk plot raw value (reciprocal velocity),"H. pylori urease (HPU) [2]; Pal=0.50 mM, 1/urea 0.266667",11.3701 and 11.0558
same,Lineweaver-Burk plot raw value (reciprocal velocity),"H. pylori urease (HPU) [2]; Pal=0.50 mM, 1/urea 0.533333",13.369 and 12.3993
same,Lineweaver-Burk plot raw value (reciprocal velocity),"H. pylori urease (HPU) [2]; Pal=0.50 mM, 1/urea 1.06667",12.1433 and 18.315 and 12.9786
same,Lineweaver-Burk plot raw value (reciprocal velocity),"H. pylori urease (HPU) [2]; Pal=1.00 mM, 1/urea 0.0333333",10.7527 and 9.785 and 8.636
same,Lineweaver-Burk plot raw value (reciprocal velocity),"H. pylori urease (HPU) [2]; Pal=1.00 mM, 1/urea 0.0666667",12.8452 and 10.5708 and 10.7296
same,Lineweaver-Burk plot raw value (reciprocal velocity),"H. pylori urease (HPU) [2]; Pal=1.00 mM, 1/urea 0.133333",12.2775 and 12.7551 and 11.5942
same,Lineweaver-Burk plot raw value (reciprocal velocity),"H. pylori urease (HPU) [2]; Pal=1.00 mM, 1/urea 0.266667",16.5017 and 10.1061 and 12.6342
same,Lineweaver-Burk plot raw value (reciprocal velocity),"H. pylori urease (HPU) [2]; Pal=1.00 mM, 1/urea 0.533333",22.1239 and 12.1729 and 15.3022
same,Lineweaver-Burk plot raw value (reciprocal velocity),"H. pylori urease (HPU) [2]; Pal=1.00 mM, 1/urea 1.06667",26.3505 and 13.2013 and 19.861
same,type of urease inhibition,"H. pylori urease (HPU) [2]; HPU, Lineweaver-Burk",noncompetitive
same,IC50,H. pylori urease (HPU) [3],530 ± 10 µM
same,Residual activity,"H. pylori urease (HPU) [3]; Fig 2A HPU, Pal 0.0149062 mM, replicates",97.2774% and 99.8185%
same,Residual activity,"H. pylori urease (HPU) [3]; Fig 2A HPU, Pal 0.0298125 mM, replicates",98.3238% and 98.6586%
same,Residual activity,"H. pylori urease (HPU) [3]; Fig 2A HPU, Pal 0.059625 mM, replicates",95.8144% and 91.8003%
same,Residual activity,"H. pylori urease (HPU) [3]; Fig 2A HPU, Pal 0.11925 mM, replicates",84.6333% and 83.9334%
same,Residual activity,"H. pylori urease (HPU) [3]; Fig 2A HPU, Pal 0.2385 mM, replicates",71.2237% and 68.6838%
same,Residual activity,"H. pylori urease (HPU) [3]; Fig 2A HPU, Pal 0.477 mM, replicates",44.3368% and 41.1296%
same,Residual activity,"H. pylori urease (HPU) [3]; Fig 2A HPU, Pal 0.954 mM, replicates",18.2056% and 23.6712%
same,Residual activity,"H. pylori urease (HPU) [3]; Fig 2C HPU, head prints Pal 0.00755209 mM, replicates",104.061% and 86.9419%
same,Residual activity,"H. pylori urease (HPU) [3]; Fig 2C HPU, head prints Pal 0.0151042 mM, replicates",98.3628% and 84.9736%
same,Residual activity,"H. pylori urease (HPU) [3]; Fig 2C HPU, head prints Pal 0.0302084 mM, replicates",80.4878% and 87.2209% and 66.9067%
same,Residual activity,"H. pylori urease (HPU) [3]; Fig 2C HPU, head prints Pal 0.0604167 mM, replicates",64.023% and 48.6958%
same,Residual activity,"H. pylori urease (HPU) [3]; Fig 2C HPU, head prints Pal 0.120833 mM, replicates",34.9663% and 29.6848%
same,Residual activity,"H. pylori urease (HPU) [3]; Fig 2C HPU, head prints Pal 0.241667 mM, replicates",20.774% and 15.3785%
same,remaining activity at 14.9062 µM,"H. pylori urease (HPU) [3]; read-out: Residual activity, Fig 2A HPU, Pal 0.0149062 mM, replicates",98.5%
